Data from the supplement of paper PMC10307832.

Key:
Test in all cases: relative viability (nuclei count vs DMSO), 5 days (fraction); higher = more cells survive
[1] = compound: CCCS(=O)(=O)Nc1ccc(F)c(C(=O)c2c[nH]c3ncc(-c4ccc(Cl)cc4)cc23)c1F [Vemurafenib] + N=C(N)NC(=N)NCCc1ccccc1 [Phenformin] (partner 250 µM)
In short: (§1)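 Lung cancer cell lines in 1536-well plates were dosed by pin tool the day after seeding, either with one drug alone or with a fixed anchor-drug dose plus five library-drug doses (not always all listed) in √10 steps. After 5 days, cells were fixed and their nuclei stained in one step (final 0.05% Triton X-100, 1% formaldehyde, 1 ug/ml Hoechst), then counted on 4× images. Relative viability is the nuclei count in treated wells divided by that in vehicle wells. Values are medians of duplicate plates.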

[2] = compound: COc1cccc2cc(-c3nc([C@H]4CC[C@H](C(=O)O)CC4)n4ncnc(N)c34)[nH]c12 [OSI-027] + Cc1cc(Nc2cc(N3CCN(C)CC3)nc(Sc3ccc(NC(=O)C4CC4)cc3)n2)n[nH]1 [Tozasertib] (partner 0.1 µM)
In short: as §1

[3] = compound: COc1cccc2cc(-c3nc([C@H]4CC[C@H](C(=O)O)CC4)n4ncnc(N)c34)[nH]c12 [OSI-027] + N=C(N)NC(=N)NCCc1ccccc1 [Phenformin] (partner 250 µM)
In short: as §1

[4] = compound: Cc1nc(NC(=O)N2CCC[C@H]2C(N)=O)sc1-c1ccnc(C(C)(C)C(F)(F)F)c1 [Alpelisib] + O=C(c1cc(Cc2n[nH]c(=O)c3ccccc23)ccc1F)N1CCN(C(=O)C2CC2)CC1 [Olaparib] (partner 8 µM)
In short: as §1

Row | Cell Line | relative viability ([1]; first compound 0.03162 µM) | relative viability ([1]; first compound 0.1 µM) | relative viability ([1]; first compound 0.3162 µM) | relative viability ([1]; first compound 1 µM) | relative viability ([2]; first compound 0.01 µM) | relative viability ([2]; first compound 0.03162 µM) | relative viability ([2]; first compound 0.1 µM) | relative viability ([2]; first compound 0.3162 µM) | relative viability ([2]; first compound 1 µM) | relative viability ([3]; first compound 0.01 µM) | relative viability ([3]; first compound 0.03162 µM) | relative viability ([3]; first compound 0.1 µM) | relative viability ([3]; first compound 0.3162 µM) | relative viability ([3]; first compound 1 µM) | relative viability ([4]; first compound 0.04 µM) | relative viability ([4]; first compound 0.1265 µM) | relative viability ([4]; first compound 0.4 µM) | relative viability ([4]; first compound 1.265 µM) | relative viability ([4]; first compound 4 µM)
1 | 201T | 0.421 | 0.491 | 0.42 | 0.456 | 1 | 0.96 | 0.946 | 0.914 | 0.736 | 0.477 | 0.45 | 0.445 | 0.407 | 0.371 | 0.82 | 0.81 | 0.859 | 0.774 | 0.679
2 | A549 | 0.163 | 0.154 |  | 0.146 |  |  |  |  |  | 0.176 | 0.154 | 0.122 | 0.171 | 0.0806 | 0.301 |  | 0.434 | 0.3 | 0.23
3 | A-427 | 0.317 | 0.313 | 0.267 | 0.365 | 0.231 | 0.201 | 0.159 | 0.219 | 0.192 | 0.296 | 0.332 | 0.289 | 0.269 | 0.297 | 0.721 | 0.724 | 0.762 | 0.609 | 0.613
4 | ABC-1 | 0.241 | 0.297 | 0.276 | 0.246 | 0.197 | 0.179 | 0.203 | 0.167 | 0.206 | 0.237 | 0.244 | 0.236 | 0.2 | 0.197 | 0.775 | 0.596 | 1.01 | 0.885 | 0.804
5 | BEN | 0.255 | 0.299 |  | 0.249 | 0.566 | 0.625 | 0.469 | 0.529 | 0.383 | 0.248 | 0.27 | 0.288 | 0.244 | 0.232 | 1.18 | 1.18 | 1.22 | 1.02 | 0.879
6 | CAL-12T | 0.538 | 0.453 | 0.602 | 0.552 | 0.377 | 0.287 | 0.317 | 0.294 | 0.212 | 0.584 | 0.644 | 0.512 | 0.618 | 0.355 | 0.771 | 0.774 | 0.767 | 0.726 | 0.745
7 | COR-L23 | 0.38 | 0.464 | 0.334 | 0.435 | 0.18 | 0.185 | 0.237 | 0.287 | 0.19 | 0.53 | 0.445 | 0.476 | 0.445 | 0.206 | 0.327 | 0.338 | 0.573 | 0.294 | 0.253
8 | COR-L 105 | 0.399 |  |  | 0.5 | 0.335 | 0.336 | 0.374 | 0.371 | 0.411 | 0.47 | 0.466 | 0.479 | 0.351 | 0.359 | 0.706 | 0.646 | 0.755 | 0.686 | 0.642
9 | Calu-6 |  |  |  |  |  |  |  |  |  |  |  |  |  |  | 0.602 | 0.529 | 0.646 | 0.615 | 0.577
10 | ChaGo-K-1 | 0.472 | 0.545 | 0.352 | 0.481 | 0.208 | 0.222 | 0.203 | 0.382 | 0.172 | 0.43 | 0.499 | 0.436 | 0.409 | 0.323 | 0.435 | 0.42 | 0.426 | 0.417 | 0.342
11 | EBC-1 |  |  |  |  |  |  |  |  |  |  |  |  |  |  | 0.682 | 0.74 | 0.655 | 0.636 | 0.587
12 | EKVX | 0.223 |  | 0.223 | 0.213 | 0.299 | 0.358 | 0.406 | 0.349 | 0.269 | 0.238 | 0.205 | 0.245 | 0.222 | 0.195 | 0.856 | 0.897 | 1.1 | 0.753 | 0.512
13 | EMC-BAC-2 | 0.509 | 0.461 | 0.26 | 0.452 | 0.281 | 0.284 | 0.254 | 0.287 | 0.24 | 0.513 | 0.543 | 0.466 | 0.385 | 0.263 | 0.492 | 0.382 | 0.498 | 0.347 | 0.318
14 | EPLC-272H | 0.355 | 0.226 | 0.263 | 0.362 | 0.139 | 0.277 | 1.01 | 0.162 | 0.143 | 0.309 | 0.258 | 0.3 | 0.276 | 0.211 | 0.936 | 0.838 | 0.75 | 0.393 | 0.485
15 | H3255 | 0.3 |  | 0.342 | 0.332 | 0.749 | 0.62 | 0.604 | 0.555 | 0.436 | 0.308 | 0.359 | 0.31 | 0.349 | 0.407 | 0.571 | 0.59 | 0.651 | 0.538 | 0.474
16 | HARA | 0.434 | 0.283 | 0.328 | 0.323 | 0.472 | 0.099 | 0.115 | 0.0843 | 0.106 | 0.439 | 0.425 | 0.488 | 0.408 | 0.261 | 0.696 | 0.64 | 0.742 | 0.453 | 0.452
17 | HCC-15 | 0.441 | 0.497 |  | 0.45 | 0.458 | 0.4 | 0.429 | 0.414 | 0.266 | 0.465 | 0.458 | 0.45 | 0.389 | 0.279 | 0.685 | 0.765 | 0.738 | 0.616 | 0.509
18 | HCC-44 | 0.157 | 0.206 |  | 0.213 | 0.945 | 0.859 | 1.05 | 0.84 | 0.685 | 0.16 | 0.229 | 0.127 | 0.158 | 0.12 | 0.979 | 0.943 | 1.07 | 0.979 | 0.936
19 | HCC-78 | 0.656 | 0.618 | 0.817 | 0.727 | 0.506 | 0.374 | 0.435 | 0.334 | 0.241 | 0.624 | 0.626 | 0.593 | 0.558 | 0.432 | 0.694 | 0.825 | 0.857 | 0.44 | 0.521
